Laboratory results reported in patent publication US12319679B2, “Morpholinyl, piperazinyl, oxazepanyl and diazepanyl O-glycoprotein-2-acetamido-2-deoxy-3-d-glucopyranosidase inhibitors” (BIOGEN MA INC., priority 2018, dated 2025).

These molecules were tested against T1, Recombinant full length human OGA enzyme (Homo sapiens, UniProt O60502) (assay: OGA Enzyme Inhibition Biochemical Assay). Conditions: 1 nM OGA, 100 μM 4-MUGlcNAc (Km), pH 6.4, 90 minutes at room temperature; 10-point dose-response starting from 20 μM.
T1 construct: Recombinant full length human OGA enzyme was purchased from Origene; purchased Origene
T1 sequence (O60502 1-916): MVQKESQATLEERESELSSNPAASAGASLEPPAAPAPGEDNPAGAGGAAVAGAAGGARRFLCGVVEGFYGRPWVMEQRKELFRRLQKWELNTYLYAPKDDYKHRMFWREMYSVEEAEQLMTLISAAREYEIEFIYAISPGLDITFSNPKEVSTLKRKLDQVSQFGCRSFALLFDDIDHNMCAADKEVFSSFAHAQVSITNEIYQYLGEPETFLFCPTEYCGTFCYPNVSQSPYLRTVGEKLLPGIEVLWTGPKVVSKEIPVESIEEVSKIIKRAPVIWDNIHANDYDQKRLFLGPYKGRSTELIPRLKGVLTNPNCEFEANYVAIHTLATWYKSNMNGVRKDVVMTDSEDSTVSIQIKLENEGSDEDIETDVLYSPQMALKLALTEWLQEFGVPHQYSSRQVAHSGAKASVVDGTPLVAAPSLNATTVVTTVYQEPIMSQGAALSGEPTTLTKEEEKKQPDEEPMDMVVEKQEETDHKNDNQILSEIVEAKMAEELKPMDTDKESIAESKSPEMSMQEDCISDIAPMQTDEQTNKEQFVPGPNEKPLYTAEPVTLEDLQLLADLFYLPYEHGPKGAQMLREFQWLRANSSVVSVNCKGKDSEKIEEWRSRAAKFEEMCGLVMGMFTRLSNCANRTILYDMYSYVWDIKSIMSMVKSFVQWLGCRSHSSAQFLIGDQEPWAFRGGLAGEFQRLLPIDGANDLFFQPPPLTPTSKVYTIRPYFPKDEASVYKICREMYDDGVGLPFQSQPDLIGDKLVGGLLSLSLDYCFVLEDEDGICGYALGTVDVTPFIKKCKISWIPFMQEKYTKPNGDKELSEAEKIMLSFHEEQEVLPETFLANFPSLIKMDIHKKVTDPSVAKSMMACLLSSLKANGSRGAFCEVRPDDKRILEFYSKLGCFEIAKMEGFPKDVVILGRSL
Procedure: OGA Enzyme Inhibition Biochemical Assay
Recombinant full length human OGA enzyme was purchased from Origene. 4-MUGlCNAc substrate was purchased from Sigma. All other reagents were purchased from Sigma or Fisher. Assay buffer consists of the McIlvaine buffer system, pH 6.4 (0.2M Na2HPO4 mixed with 0.1M citric acid) and 0.01% BSA. Reactions consist of 1 nM OGA, 100 μM 4-MUGlcNAc (Km), and compound in a final volume of 10 μl. Reactions were incubated for 90 minutes at room temperature and quenched with 40 μl of 3M glycine, pH 10 and read on a Perkin Elmer Envision plate reader (Ex: 355 nm/Em: 460 nm). Compounds were tested with a 10-point dose-response starting from 20 μM with a 4-fold dilution. Data was fit using GraphPad Prism using a 4-paramter fit with variable slope.

Row | Compound | IC50
1 | CC(=O)Nc1ncc(CN2C[C@@H](Cc3ncc(F)cn3)OC[C@H]2C)s1 [Example 1-27] | 6600 nM
2 | CC(=O)Nc1ncc(CN2C[C@H](Cc3ncc(F)cn3)OC[C@@H]2C)s1 [Example 1-28, N-(5-(((2S,5S)-2-((5-fluoropyrimidin-2-yl)methyl)-5-methylmorpholino)methyl)thiazol-2-yl)acetamide] | 150 nM
3 | CC(=O)Nc1ncc(CN2C[C@H](Cc3ncc(F)cn3)OC[C@H]2C)s1 [Example 1-29, N-(5-(((2S,5R)-2-((5-fluoropyrimidin-2-yl)methyl)-5-methylmorpholino)methyl)thiazol-2-yl)acetamide] | 12000 nM
4 | COc1cc(C[C@@H]2CN(Cc3cnc(NC(C)=O)s3)[C@@H](C)CO2)ccn1 [Example 1-30, N-(5-(((2R,5S)-2-((2-methoxypyridin-4-yl)methyl)-5-methylmorpholino)methyl)thiazol-2-yl)acetamide] | 17000 nM
5 | CC(=O)Nc1ncc(CN2C[C@@H](Cc3cc(C)nc(C)c3)OC[C@@H]2C)s1 [Example 1-31] | 9 nM
6 | CC(=O)Nc1ncc(CN2C[C@@H](Cc3ccnc(C)c3)OC[C@@H]2C)s1 [Example 1-32, N-(5-(((2R,5S)-5-methyl-2-((2-methylpyridin-4-yl)methyl)morpholino)methyl)thiazol-2-yl)acetamide] | 1.4 nM
7 | CC(=O)Nc1ncc(CN2C[C@@H](Cc3ccc(C)nc3)OC[C@@H]2C)s1 [Example 1-33, N-(5-(((2R,5S)-5-methyl-2-((6-methylpyridin-3-yl)methyl)morpholino)methyl)thiazol-2-yl)acetamide] | 31 nM
8 | CC(=O)Nc1nc(F)c(CN2CCO[C@H](Cc3ccc(C)nc3)C2)s1 [Example 1-48, (R)—N-(4-fluoro-5-((2-((6-methylpyridin-3-yl)methyl)morpholino)methyl)thiazol-2-yl)acetamide] | 140 nM
9 | CC(=O)Nc1nc(F)c(CN2C[C@@H](Cc3ccc(C)nc3)OC[C@@H]2C)s1 [Example 1-49, N-(4-fluoro-5-(((2R,5S)-5-methyl-2-((6-methylpyridin-3 yl)methyl)morpholino)methyl)thiazol-2-yl)acetamide] | 170 nM
10 | CC(=O)Nc1ncc(CN2C[C@@H](Cc3ccnc(C)c3)NC[C@@H]2C)s1 [Example 2-1, N-(5-(((2S,5R)-2-methyl-5-((2-methylpyridin-4-yl)methyl)piperazin-1-yl)methyl)thiazol-2-yl)acetamide] | 7.4 nM
11 | CC(=O)Nc1ncc(CN2C[C@@H](Cc3ccnc(C)c3)N(C)C[C@@H]2C)s1 [Example 2-2, N-(5-(((2S,5R)-2,4-dimethyl-5-((2-methylpyridin-4-yl)methyl)piperazin-1-yl)methyl)thiazol-2-yl)acetamide] | 9.8 nM
12 | CCN1C[C@H](C)N(Cc2cnc(NC(C)=O)s2)C[C@H]1Cc1ccnc(C)c1 [Example 2-3, N-(5-(((2S,5R)-4-ethyl-2-methyl-5-((2-methylpyridin-4-yl)methyl)piperazin-1-yl)methyl)thiazol-2-yl)acetamide] | 26 nM
13 | CC(=O)Nc1ncc(CN2C[C@@H](Cc3ccnc(C)c3)N(C(C)=O)C[C@@H]2C)s1 [Example 2-4, N-(5-(((2S,5R)-4-acetyl-2-methyl-5-((2-methylpyridin-4-yl)methyl)piperazin-1-yl)methyl)thiazol-2-yl)acetamide] | 7500 nM
14 | CC(=O)Nc1ncc(CN2C[C@@H](Cc3ncc(F)cn3)NC[C@@H]2C)s1 [Example 2-5] | 19 nM
15 | CC(=O)Nc1ncc(CN2C[C@@H](Cc3ncc(F)cn3)N(C)C[C@@H]2C)s1 [Example 2-6, N-(5-(((2S,5R)-5-((5-fluoropyrimidin-2-yl)methyl)-2,4-dimethylpiperazin-1-yl)methyl)thiazol-2-yl)acetamide] | 17 nM
16 | CC(=O)Nc1ncc(CN2C[C@@H](Cc3ncc(F)cn3)N(C(C)=O)C[C@@H]2C)s1 [Example 2-7, N-(5-(((2S,5R)-4-acetyl-5-((5-fluoropyrimidin-2-yl)methyl)-2-methylpiperazin-1-yl)methyl)thiazol-2-yl)acetamide] | 9600 nM
17 | CC(=O)Nc1ncc(CN2C[C@@H](Cc3cc(C)nc(C)c3)NC[C@@H]2C)s1 [Example 2-8, N-(5-(((2S,5R)-5-((2,6-dimethylpyridin-4-yl)methyl)-2-methylpiperazin-1-yl)methyl)thiazol-2-yl)acetamide] | 9.1 nM
18 | CC(=O)Nc1ncc(CN2C[C@@H](Cc3ccc(C)nc3)NC[C@@H]2C)s1 [Example 2-9, N-(5-(((2S,5R)-2-methyl-5-((6-methylpyridin-3-yl)methyl)piperazin-1-yl)methyl)thiazol-2-yl)acetamide] | 45 nM
19 | CC(=O)Nc1ncc(CN2C[C@@H](Cc3cc(C)nc(C)c3)N(C)C[C@@H]2C)s1 [Example 2-10] | 34 nM
20 | CC(=O)Nc1ncc(CN2C[C@@H](Cc3ccc(C)nc3)N(C)C[C@@H]2C)s1 [Example 2-11, N-(5-(((2S,5R)-2,4-dimethyl-5-((6-methylpyridin-3-yl)methyl)piperazin-1-yl)methyl)thiazol-2-yl)acetamide] | 45 nM
21 | CCN1C[C@H](C)N(Cc2cnc(NC(C)=O)s2)C[C@H]1Cc1ccc(C)nc1 [Example 2-12, N-(5-(((2S,5R)-4-ethyl-2-methyl-5-((6-methylpyridin-3-yl)methyl)piperazin-1-yl)methyl)thiazol-2-yl)acetamide] | 180 nM
22 | CC(=O)Nc1ncc(CN2C[C@@H](Cc3cc(C)nc(C)n3)NC[C@@H]2C)s1 [Example 2-13] | 22 nM
23 | COc1cc(C[C@@H]2CN(Cc3cnc(NC(C)=O)s3)[C@@H](C)CN2)ccn1 [Example 2-14, N-(5-(((2S,5R)-5-((2-methoxypyridin-4-yl)methyl)-2-methylpiperazin-1-yl)methyl)thiazol-2-yl)acetamide] | 7.5 nM
24 | CC(=O)Nc1ncc(CN2C[C@@H](Cc3cc(C)nc(C)c3)N(C(C)=O)C[C@@H]2C)s1 [Example 2-15, N-(5-(((2S,5R)-4-acetyl-5-((2,6-dimethylpyridin-4-yl)methyl)-2-methylpiperazin-1-yl)methyl)thiazol-2-yl)acetamide] | 5900 nM
25 | CC(=O)Nc1ncc(CN2C[C@@H](Cc3cc(C)nc(C)n3)N(C)C[C@@H]2C)s1 [Example 2-17] | 41 nM
26 | COc1cc(C[C@@H]2CN(Cc3cnc(NC(C)=O)s3)[C@@H](C)CN2C)ccn1 [Example 2-18] | 4.9 nM
27 | CC(=O)Nc1ncc(CN2CCCNC(Cc3ncc(F)cn3)C2)s1 (stereo not drawn) [Example 2-23, N-(5-((3-((5-fluoropyrimidin-2-yl)methyl)-1,4-diazepan-1-yl)methyl)thiazol-2-yl)acetamide] | 5600 nM
28 | CC(=O)Nc1ncc(CN2CCCN(C)C(Cc3ncc(F)cn3)C2)s1 (stereo not drawn) [Example 2-24, N-(5-((3-((5-fluoropyrimidin-2-yl)methyl)-4-methyl-1,4-diazepan-1-yl)methyl)thiazol-2-yl)acetamide] | 12000 nM
29 | COc1cc(CC2CN(Cc3cnc(NC(C)=O)s3)CCCN2)ccn1 (stereo not drawn) [Example 2-25, N-(5-((3-((2-methoxypyridin-4-yl)methyl)-1,4-diazepan-1-yl)methyl)thiazol-2-yl)acetamide] | > 20000 nM
30 | COc1cc(CC2CN(Cc3cnc(NC(C)=O)s3)CCCN2C(C)=O)ccn1 (stereo not drawn) [Example 2-26, N-(5-((4-acetyl-3-((2-methoxypyridin-4-yl)methyl)-1,4-diazepan-1-yl)methyl)thiazol-2-yl)acetamide] | > 20000 nM
